The record followed here is patent publication US20130023504A1, “Modulation of Prostaglandin/Cyclooxygenase Metabolic Pathways” (HUNTER-FLEMING LIMITED, priority 2006, published 2013).

What all share (format): cell-based
Assay [1] relates to rat sensory neurones. Description: Cisplatin-induced neuronal cell death, number of cell bodies per field in dorsal root ganglia sensory neurones (anti MAP-2). The conditions noted are these: 10 ng/ml, cisplatin 3 μg/ml. Here is the method:
(§1) Primary cultures of dissociated dorsal root ganglia sensory neurones were incubated with 3 μg/ml cisplatin, with and without 7β-OH EPIA for 48 hours and 72 hours and the following parameters were evaluated:
neurone cell bodies stained with an anti MAP 2 antibody (microtubule associated protein 2)
(§2) Rat sensory neurones were prepared according to the method described by Hall et al 1997 [Hall et al. (J. Neurosci. 1997 Apr. 15; 17(8); 2775-84]. Briefly, a female rat (15 days gestation) was killed by cervical dislocation (Rats Wistar; Janvier, Le Genest-St-lsle, France) and the foetuses removed from the uterus. Their spinal cords with the dorsal root ganglia (DRG) were removed and placed in ice-cold medium of Leibovitz (L15, Fisher 11415-049) containing Penicillin 50 UI/ml-Streptomycin 50 μg/ml (PS, 1%) and bovine serum albuminutes (BSA 1%, Sigma A6003). The DRG were recovered and dissociated by trypsinisation for 20 minutes at 37° C. (trypsin EDTA 10×, 10%, Fisher 15400054) diluted in PBS without calcium and magnesium (Fisher 2007-03). The reaction was stopped by addition of Dulbecco modified Eagle medium (DMEM, Fisher 21969-035) containing DNase I grade II (0.1 mg/ml Roche diagnostic 104159) and foetal bovine serum (FBS 10%, Fisher 10270-098). The cell suspension was triturated with a 10 ml pipette and centrifuged at 350×g for 10 minutes at room temperature. The pellet of dissociated cells was then resuspended in defined culture medium.
(§3) Viable cells were counted in a Neubauer cytometer using the trypan blue exclusion test (Sigma) and seeded at a density of 30 000 cells/well in 96 well-plates (Nunc). Wells were pre-coated with poly-L-lysine (10 μg/ml, Sigma P2636) in ultra pure sterile water (Merck Eurolab 60759.01).
(§4) Cells were allowed to adhere for 2 h and maintained in a humidified incubator at 37° C. in 5% CO2/95% air atmosphere.
(§5) After 5 days of culture, the culture medium was changed into a defined culture medium following the different conditions described below:
(§6) Test compound 7β-OH EPIA (1 nM, 10 nM and 100 nM)+cisplatin (3 μg/ml)
(§7) Reference compound NGF (10 ng/ml)+cisplatin (3 μg/ml)
(§8) Six wells per condition were carried out to assess neuronal survival. After 48 hours and 72 hours of incubation, the neuronal cells were fixed for 5 minutes in an ethanol/acetic acid solution (95%/5%) at −20° C. and rinsed 3 times in PBS.
(§9) Cell bodies of sensory neurones were labelled by monoclonal anti MAP-2 antibody (Sigma M4403) and the neurite of sensory neurones were labelled by monoclonal β-Tubulin antibody (Sigma T8660). These antibodies were diluted at 1:400 in incubation solution (PBS with 5% of FCS and 0.1% of saponin, Sigma S-7900). These antibodies specifically label neurone cell bodies and neuritis, respectively.
(§10) After 2 hours of incubation, the cells were washed in PBS and incubated with Alexa Fluor 488 goat anti mouse IgG (Molecular Probes A11001) diluted at 1:300 in incubation solution to reveal the MAP-2 and the β-Tubulin antibodies. Cell nuclei were stained with a fluorescent marker (Hoechst staining solution, SIGMA H6024, 1 μg/ml in incubation solution during 1 hour).
(§11) For each condition, 2 pictures per well (12 pictures per condition) were taken using In Cell Analyzer 1000 (Amersham Biosciences) controlled by the computer software In Cell Analyzer 1000 3.2. For the MAP-2 labelling, the magnification was ×10, for the β-Tubulin labelling, the magnification was ×20. For each labelling, all the images were taken in the same conditions.
(§12) Analysis of the number of cell bodies labelled with anti-MAP-2 antibodies, and total length of neurites labelled with anti β-Tubulin antibodies, were carried out using In Cell Analyzer 1000 3.2.Workstation software. The results were expressed in percentage compared to the vehicle. The comparisons of each group were carried out using the unpaired T test.

Assay [2] relates to rat sensory neurones. In words: Neurite growth of sensory neurones in primary culture (anti β-Tubulin, In Cell Analyzer). How it is done:
Rat sensory neurones were prepared according to the method described by Hall et al. 1997 (Hall A K, Ai X, Hickman G E, MacPhedran S E, Nduaguba C O, Robertson C P. The generation of neuronal heterogeneity in a rat sensory ganglion. J. Neurosci. 1997 Apr. 15; 17(8):2775-84). Briefly, female rats (15 days gestation) were killed by cervical dislocation (Rats Wistar; Janvier, Le Genest-St-Isle, France) and the foetuses removed from the uterus. Their spinal cords with the dorsal root ganglia (DRG) were removed and placed in ice-cold medium of Leibovitz (L15, Fisher 11415-049) containing Penicillin 50 Ul/ml-Streptomycin 50 pg/ml (PS, 1%) and bovine serum albuminutes (BSA 1%, Sigma A6003). The DRG were recovered and dissociated by trypsinisation for 20 minutes at 37° C. (trypsin EDTA 10×, 10%, Fisher 15400054) diluted in PBS without calcium and magnesium (Fisher 2007-03). The reaction was stopped by addition of Dulbecco modified Eagle medium (DMEM, Fisher 21969-035) containing DNase I grade II (0.1 mg/ml Roche diagnostic 104159) and foetal bovine serum (FBS 10%, Fisher 10270-098). The cell suspension was triturated with a 10 ml pipette and centrifuged at 350×g for 10 minutes at room temperature. The pellet of dissociated cells was then resuspended in defined culture medium.
Viable cells were counted in a Neubauer cytometer using the trypan blue exclusion test (Sigma) and seeded at a density of 25 000 cells/well in 96 well-plates (Nunc). Wells were pre-coated with poly-L-lysine (10 μg/ml, Sigma P2636) in ultra pure sterile water (Merck Eurolab 60759.01).
Cells were allowed to adhere for 2 hours and maintained in a humidified incubator at 37° C. in 5% CO2/95% air atmosphere.
The culture medium was changed into a defined culture medium after a 12 hours incubation period following the conditions described below:
NGF 50 ng/ml and 10 ng/ml (in 0.1% DMSO)
After 6 hours, 12 hours and 24 hours of incubation with 7β-OH EPIA, cells were fixed for 5 minutes in an ethanol/acetic acid solution (95%/5%) at −20° C. and rinsed 3 times in PBS.
Motor neurones and sensory neurones were labelled by monoclonal anti β-Tubulin antibody (Sigma T8660) diluted at 1:400 in incubation solution (PBS with 5% of FCS and 0.1% of saponin, Sigma S-7900). This antibody specifically labels neurone cell bodies and neurites.
After 2 hours of incubation, the cells were washed in PBS and incubated with Alexa Fluor 488 goat anti mouse IgG (Molecular Probes A11001) diluted at 1:300 in incubation solution to reveal the 8-Tubulin III antibodies.
Analysis of the total length of neurones labelled with anti β-Tubulin antibodies (neurones) were carried out using In Cell Analyzer 1000 3.2.Workstation software.
The results were expressed in percentage compared to the vehicle. Comparison of groups was carried out using the unpaired T test.

The test system of assay [3] is rat sensory neurones. In words: Cisplatin-induced loss of neurite density in primary dorsal root ganglia sensory neurones (anti β-Tubulin). The conditions noted are these: 10 ng/ml, cisplatin 3 μg/ml. Here is the method:
as §1
neurite network density stained with an anti 8-Tubulin antibody
as §2, §3, §4, §5, §6, §7, §8, §9, §10, §11, §12

For “NGF: Nerve Growth Factor, a specific growth factor for sensory neurones; reference compound”, the “% Control without cisplatin (cell bodies)” value with rat sensory neurones [1] (48 hours) stood at 96%; in the assay with rat sensory neurones [1] (72 hours) it was 1.2%. Also, the “number of cell bodies per field, Average” value in the assay with rat sensory neurones [1] (48 hours) is on record as 58.33; in the assay with rat sensory neurones [1] (72 hours) it was 54.92. The “Neurites length per field, % Vehicle” value with rat sensory neurones [2] (10 ng/ml, 6 hours) came to 191%; with rat sensory neurones [2] (10 ng/ml, 12 hours), 128%; with rat sensory neurones [2] (10 ng/ml, 24 hours) it was 371%; in the assay on rat sensory neurones [2] (50 ng/ml, 6 hours), 273%; in the assay on rat sensory neurones [2] (50 ng/ml, 12 hours), 216%; in the assay on rat sensory neurones [2] (50 ng/ml, 24 hours), 309%. The “Neurites length per field, Mean” value in the assay on rat sensory neurones [2] (10 ng/ml, 6 hours) is recorded as 195.2 μm; in the assay with rat sensory neurones [2] (10 ng/ml, 12 hours), 381.3 μm; in the assay with rat sensory neurones [2] (10 ng/ml, 24 hours), 819.9 μm; with rat sensory neurones [2] (50 ng/ml, 6 hours), 279.1 μm; in the assay on rat sensory neurones [2] (50 ng/ml, 12 hours) it was 644.3 μm; with rat sensory neurones [2] (50 ng/ml, 24 hours), 682.1 μm. Moreover, the results for the “% Control without cisplatin (neurite length)” value with rat sensory neurones [3] (48 hours) and in the assay on rat sensory neurones [3] (72 hours) were 117% and 113%, respectively. Further, the Mean neurite length in the assay with rat sensory neurones [3] (48 hours) is on record as 6362.44 μm; in the assay with rat sensory neurones [3] (72 hours), 6000.30 μm.
